Values quoted from earlier work as cited in paper PMC9516332 (Frontiers in Oncology, 2022).
Read-outs that look alike come from different tables or passages of the source.

Tests used:
[1] = molecular target: panel of 255 wild-type kinases (Homo sapiens, UniProt P04629); conditions: kinase TRKA, 1 µmol/L single concentration, cited from earlier work
[2] = molecular target: panel of 255 wild-type kinases (Homo sapiens, UniProt P10721); conditions: kinase KIT, 1 µmol/L single concentration, cited from earlier work
[3] = molecular target: panel of 255 wild-type kinases (Homo sapiens, UniProt P11309); conditions: kinase PIM1, 1 µmol/L single concentration, cited from earlier work
[4] = molecular target: panel of 255 wild-type kinases (Homo sapiens, UniProt P22607); conditions: kinase FGFR3, 1 µmol/L single concentration, cited from earlier work
[5] = molecular target: panel of 255 wild-type kinases (Homo sapiens, UniProt P23443); conditions: p70S6K, 1 µmol/L single concentration, cited from earlier work
[6] = molecular target: panel of 255 wild-type kinases (Homo sapiens, UniProt P78368); conditions: kinase CK1γ2; 1 µmol/L single concentration; ref DOI: 10.1158/1535-7163.MCT-18-0877; cited from earlier work
[7] = molecular target: panel of 255 wild-type kinases (Homo sapiens, UniProt Q13131); conditions: AMPKα1/β1/γ1 kinase assay, 1 µmol/L single concentration, cited from earlier work
[8] = molecular target: T1, panel of 255 wild-type kinases (Homo sapiens, UniProt Q13188); conditions: MST2, 1 µmol/L single concentration, cited from earlier work
T1 sequence (Q13188 1-491): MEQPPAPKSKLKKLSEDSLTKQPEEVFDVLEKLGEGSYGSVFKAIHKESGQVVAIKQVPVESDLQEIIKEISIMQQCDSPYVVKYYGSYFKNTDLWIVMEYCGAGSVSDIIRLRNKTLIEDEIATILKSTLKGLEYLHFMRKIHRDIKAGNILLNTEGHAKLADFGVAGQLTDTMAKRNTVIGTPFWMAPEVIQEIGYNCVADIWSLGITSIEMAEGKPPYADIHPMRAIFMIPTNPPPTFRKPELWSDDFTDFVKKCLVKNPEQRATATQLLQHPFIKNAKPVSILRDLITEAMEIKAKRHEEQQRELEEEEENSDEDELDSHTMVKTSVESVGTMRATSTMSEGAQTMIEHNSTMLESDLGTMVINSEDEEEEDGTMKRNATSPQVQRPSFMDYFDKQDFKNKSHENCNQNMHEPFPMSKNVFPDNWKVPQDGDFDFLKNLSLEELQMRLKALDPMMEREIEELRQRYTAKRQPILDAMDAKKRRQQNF

[9] = molecular target: panel of 255 wild-type kinases (Homo sapiens, UniProt Q15375); conditions: kinase EPHA7, 1 µmol/L single concentration, cited from earlier work
[10] = molecular target: panel of 255 wild-type kinases (Homo sapiens, UniProt Q9H1R3); conditions: kinase skMLCK, 1 µmol/L single concentration, cited from earlier work
[11] = molecular target: panel of 255 wild-type kinases (Homo sapiens, UniProt Q9H422); conditions: kinase HIPK3, 1 µmol/L single concentration, cited from earlier work
[12] = molecular target: panel of 255 wild-type kinases (Homo sapiens, UniProt Q9Y463); conditions: kinase DYRK1B, 1 µmol/L single concentration, cited from earlier work
[13] = molecular target: panel of 255 wild-type kinases (Homo sapiens, UniProt O94804); conditions: kinase LOK, 1 µmol/L single concentration, cited from earlier work
[14] = molecular target: T2, panel of 255 wild-type kinases (Homo sapiens, UniProt Q08881); conditions: kinase ITK, 1 µmol/L single concentration, cited from earlier work
T2 sequence (Q08881 1-620): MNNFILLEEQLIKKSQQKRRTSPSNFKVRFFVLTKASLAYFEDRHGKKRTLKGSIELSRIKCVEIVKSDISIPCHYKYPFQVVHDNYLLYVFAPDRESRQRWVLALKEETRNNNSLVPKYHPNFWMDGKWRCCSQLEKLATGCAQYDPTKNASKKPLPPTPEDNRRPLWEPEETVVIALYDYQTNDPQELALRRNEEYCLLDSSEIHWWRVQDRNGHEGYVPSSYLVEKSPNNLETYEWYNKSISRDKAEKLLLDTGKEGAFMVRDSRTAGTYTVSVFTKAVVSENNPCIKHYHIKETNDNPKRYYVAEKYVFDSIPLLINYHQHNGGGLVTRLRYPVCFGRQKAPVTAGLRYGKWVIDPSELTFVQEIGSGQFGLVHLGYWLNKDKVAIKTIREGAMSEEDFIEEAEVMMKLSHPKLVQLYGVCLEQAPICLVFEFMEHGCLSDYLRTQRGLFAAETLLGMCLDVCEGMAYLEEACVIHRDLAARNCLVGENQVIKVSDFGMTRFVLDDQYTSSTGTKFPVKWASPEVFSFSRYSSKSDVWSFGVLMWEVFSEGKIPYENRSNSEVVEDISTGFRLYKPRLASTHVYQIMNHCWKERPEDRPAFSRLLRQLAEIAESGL

[15] = ref DOI: 10.1158/1535-7163.MCT-18-0877
[16] = ref DOI: 10.1371/journal.pone.0092146

Row | SMILES | %-inhibition at 1 µmol/L, TRKA [1, 15] [%] | %-inhibition at 1 µmol/L, KIT [2, 15] [%] | %-inhibition at 1 µmol/L, PIM1 [3, 15] [%] | %-inhibition at 1 µmol/L, FGFR3 [4, 15] [%] | %-inhibition, p70S6K [5, 15] [%] | %-inhibition at 1 µmol/L, CK1γ2 [6] [%] | %-inhibition AMPKα1/β1/γ1 [7, 15] [%] | %-inhibition, MST2 [8, 15] [%] | %-inhibition at 1 µmol/L, EPHA7 [9, 15] [%] | %-inhibition at 1 µmol/L, skMLCK [10, 15] [%] | %-inhibition at 1 µmol/L, HIPK3 [11, 15] [%] | %-inhibition at 1 µmol/L, DYRK1B [12, 15] [%] | %-inhibition at 1 µmol/L, LOK [13, 15] [%] | %-inhibition at 1 µmol/L, ITK [14, 15] [%] | %-inhibition at 1 µmol/L, KIT [2, 16] [%] | %-inhibition at 1 µmol/L, FGFR3 [4, 16] [%] | %-inhibition at 1 µmol/L, ITK [14, 16] [%] | %-inhibition at 1 µmol/L, HIPK3 [11, 16] [%] | %-inhibition at 1 µmol/L, DYRK1B [12, 16] [%] | further results
1 | CCc1cc2c(cc1N1CCC(N3CCOCC3)CC1)C(C)(C)c1[nH]c3cc(C#N)ccc3c1C2=O [alectinib] | 62 | 0.373 | 15 | 8 | 2.73 | -0.041 | 5 | -1.42 | 1.58 | -11 | 3.19 | 2 |  |  |  |  |  |  |  | 
2 | Cc1cc(Nc2ncc(Cl)c(Nc3ccccc3S(=O)(=O)C(C)C)n2)c(OC(C)C)cc1C1CCNCC1 [ceritinib] |  |  | -8 | 21 | 16 | 0.506 | 21 | 2.76 | 4.64 | -9 | 7.48 | 11 | 75 | 11 |  |  |  |  |  | 
3 | C[C@@H](Oc1cc(-c2cnn(C3CCNCC3)c2)cnc1N)c1c(Cl)ccc(F)c1Cl [crizotinib] |  |  |  |  |  |  |  |  |  |  |  |  |  |  | 16 | 43 | 63 | -6 | -3 | %-inhibition at 1 µmol/L, LOK [13, 16]: 98%; %-inhibition at 1 µmol/L, TRKA [1, 16]: 103%; %-inhibition at 1 µmol/L, PIM1 [3, 16]: -7%; %-inhibition, p70S6K [5, 16]: 40%; %-inhibition AMPKα1/β1/γ1 [7, 16]: 16%; %-inhibition, MST2 [8, 16]: 13%
4 | CC(C)(C)c1nc(-c2cccc(NS(=O)(=O)c3c(F)cccc3F)c2F)c(-c2ccnc(N)n2)s1 [dabrafenib] |  |  |  |  |  |  |  |  |  |  |  |  |  |  | 59 | 4.27 | 49 | 65 | 29 | %-inhibition at 1 µmol/L, EPHA7 [9, 16]: 13%; %-inhibition at 1 µmol/L, skMLCK [10, 16]: 0.52%
5 | C=CC(=O)N1CCC[C@@H](n2nc(-c3ccc(Oc4ccccc4)cc3)c3c(N)ncnc32)C1 [ibrutinib] | 59 | -4.53 |  | 82 | 19 | 1 |  | 17 | 7 | -17 | 1.67 | 2 | 24 | 93 |  |  |  |  |  | 
6 | C=CC(=O)Nc1cc(Nc2nccc(-c3cn(C)c4ccccc34)n2)c(OC)cc1N(C)CCN(C)C [osimertinib] | 27 | -13 | -4.4 | 10 | 21 | 17 | -5 |  | 2.35 | -4 | 20 | 5 | 42 | 62 |  |  |  |  |  | 
